Results: US12290073B2, “Anti-microbial compound and methods of use” (SHENZHEN UNIVERSITY, priority 2019, dated 2025)
Read-outs that look alike come from different tables or passages of the source.

Experiments:
Assay in all cases: Anti-microbial rate of finished cotton textiles, FZ/T73023-2006 D.8 shocking method
Assay type in all cases: cell-based
[1] = tested on: Candida Albicans (C. albicans 10231); details: finishing liquid 1.0 wt %; for killing at 1 %: Candida albicans, read-out: Anti-microbial rate (%) of cotton textiles finished with compound E (1.0 wt %), C. albicans
Text: (§1) Each of the reaction products (i.e., compound E) according to Examples 1-21 was used to prepare an anti-microbial agent (e.g., a finishing liquid), and the anti-microbial effects were different depending on compound E and conditions of use.
(§2) Remarks: 1) in the data of anti-microbial rate in Table 5: Examples 1-9 used a soaking-rolling-drying process to finish cotton fabric, where the bath ratio (i.e., the ratio of the weight of a liquid containing compound E to the weight of the cotton fabric) was 20:1, the residual liquid ratio was 90%, and the drying process was conducted at 85° C. for 30 minutes; Examples 10-18 were prepared by a soaking-high speed spinning-drying method, where the bath ratio was 20:1, the residual liquid ratio was 90%, and the drying process was conducted at 85° C. for 20 min; Examples 19-21 were prepared by a spraying-spinning-drying process with a bath ratio of 30:1, a residual liquid ratio of 85% after drying, and the drying process was conducted at 105° C. for 5 minutes.
(§3) 2) Table 5 data test method: FZ/T73023-2006 anti-microbial textiles D.8 shocking method. In addition, the inhibition zone method (FZ/T73023-2006 anti-microbial textiles—Appendix E—inhibition zone method) was used to test whether the active compound (E) was released from the finished cotton textiles, the inhibition zone test result of the 21 examples and zwitterions were 0 mm, and thus compound E was not released from the finished cotton textiles. The anti-microbial finishing agent used in the comparative experiment was zwitterion with the molecular structure
(§4) 3) The composition of the finishing liquid in Table 5 was: compound E 1.0 wt %, sodium bicarbonate 1.0 wt %, and the rest of the finishing liquid was water.

[2] = tested on: Staphylococcus Aureus (S. aureus, ATCC 6538); details: for killing at 1 %: Staphylococcus aureus, ATCC6538, finishing liquid 1.0 wt %, read-out: Anti-microbial rate (%) of cotton textiles finished with compound E (1.0 wt %), S. aureus; for Anti-microbial rate (%) of cotton textiles finished with compound E (1.0 wt %), S. aureus: finishing liquid 1.0 wt %
Text: as §1, §2, §3, §4

[3] = tested on: Escherichia Coli (E. coli, ATCC25922); details: for killing at 1 %: Escherichia coli, ATCC25922, finishing liquid 1.0 wt %, read-out: Anti-microbial rate (%) of cotton textiles finished with compound E (1.0 wt %), E. coli; for Anti-microbial rate (%) of cotton textiles finished with compound E (1.0 wt %), E. coli: finishing liquid 1.0 wt %
Text: as §1, §2, §3, §4

SMILES | killing at 1 % ([1]; times of washing 0) | killing at 1 % ([1]; times of washing 10) | killing at 1 % ([1]; times of washing 50) | killing at 1 % ([2]; times of washing 0) | killing at 1 % ([2]; times of washing 10) | killing at 1 % ([2]; times of washing 50) | killing at 1 % ([3]; times of washing 0) | killing at 1 % ([3]; times of washing 10) | killing at 1 % ([3]; times of washing 50) | Anti-microbial rate (%) of cotton textiles finished with compound E (1.0 wt %), C. albicans ([1]; times of washing 0) | Anti-microbial rate (%) of cotton textiles finished with compound E (1.0 wt %), C. albicans ([1]; times of washing 10) | Anti-microbial rate (%) of cotton textiles finished with compound E (1.0 wt %), C. albicans ([1]; times of washing 50) | Anti-microbial rate (%) of cotton textiles finished with compound E (1.0 wt %), S. aureus ([2]; times of washing 0) | Anti-microbial rate (%) of cotton textiles finished with compound E (1.0 wt %), S. aureus ([2]; times of washing 10) | Anti-microbial rate (%) of cotton textiles finished with compound E (1.0 wt %), S. aureus ([2]; times of washing 50) | Anti-microbial rate (%) of cotton textiles finished with compound E (1.0 wt %), E. coli ([3]; times of washing 0) | Anti-microbial rate (%) of cotton textiles finished with compound E (1.0 wt %), E. coli ([3]; times of washing 10) | Anti-microbial rate (%) of cotton textiles finished with compound E (1.0 wt %), E. coli ([3]; times of washing 50)
C[N+](C)(CCCS(=O)(=O)[O-])CCOc1nc(Cl)nc(Cl)n1 [Comparative Experiment, reference compound] | 95% | 78% | 69% | 99.9% | 86% | 80% | 99.9% | 83% | 75% | – | – | – | – | – | – | – | – | –
C[N+](C)(C)CCNc1nc(Cl)nc(Cl)n1 [Example 3] | 99.9% | 99.9% | 99.9% | 100% | 99.9% | 99.9% | 100% | 99.9% | 99.2% | – | – | – | – | – | – | – | – | –
C[N+](C)(C)COc1nc(Cl)nc(Cl)n1 [Example 5] | 99.9% | 99.9% | 97.9% | 100% | 99.9% | 99.9% | 100% | 99.9% | 99.1% | – | – | – | – | – | – | – | – | –
CCCCCCCC[N+](C)(C)CC(C)Oc1nc(Cl)nc(Cl)n1 (stereo not drawn) [Example 6] | 99.9% | 99.9% | 97.9% | 100% | 99.9% | 99.9% | 100% | 99.9% | 99.5% | – | – | – | – | – | – | – | – | –
CCCCCCCCCCCCCC[n+]1ccn(CCCNc2nc(C)nc(Cl)n2)c1 [Example 7] | 99.9% | 99.9% | 98.6% | 100% | 99.9% | 99.9% | 100% | 99.9% | 99.9% | – | – | – | – | – | – | – | – | –
CCCCCCCCCC[n+]1ccc(CCOc2nc(Cl)nc(Br)n2)cc1 [Example 8] | 99.9% | 99.9% | 98.9% | 100% | 99.9% | 99.9% | 100% | 99.9% | 99.5% | – | – | – | – | – | – | – | – | –
C[n+]1ccc(CNc2nc(Cl)nc([N+](=O)[O-])n2)cc1 [Example 9] | 99.9% | 99.9% | 99.2% | 100% | 99.9% | 99.9% | 100% | 99.9% | 99.9% | – | – | – | – | – | – | – | – | –
Cc1nc(Cl)nc(OCCn2cc[n+](C)c2)n1 [Example 12] | 99.9% | 99.9% | 91.9% | 100% | 99.9% | 99.5% | 100% | 99.9% | 98.9% | – | – | – | – | – | – | – | – | –
C[n+]1ccn(CCCCCCCCCCCCCCCCCCOc2nc(Cl)nc(Cl)n2)c1 [Example 13] | 99.9% | 99.9% | 98.9% | 100% | 99.9% | 99.9% | 100% | 99.9% | 99.5% | – | – | – | – | – | – | – | – | –
C[n+]1ccn(CCCNc2nc(Cl)nc(Cl)n2)c1 [Example 14] | 99.9% | 99.9% | 99.9% | 100% | 99.9% | 99.5% | 100% | 99.9% | 99.1% | – | – | – | – | – | – | – | – | –
C[n+]1ccc(COc2nc(Cl)nc(Cl)n2)cc1 [Example 15] | 99.9% | 99.9% | 92.9% | 100% | 99.9% | 99.1% | 100% | 99.9% | 98.9% | – | – | – | – | – | – | – | – | –
CCCCCCCCCCCC[n+]1cc[n+](CCCCCCCCCCCC)c(CCSc2nc(Cl)nc(Cl)n2)c1 [Example 16] | 99.9% | 99.9% | 93.6% | 100% | 99.9% | 99.9% | 100% | 99.9% | 99.8% | – | – | – | – | – | – | – | – | –
CCCCCCCCCCCC[N+](C)(C)CCN(CCOc1nc(Cl)nc(Cl)n1)CC[N+](C)(C)CCCCCCCCCCCC [Example 17] | 99.9% | 99.9% | 99.3% | 100% | 99.9% | 99.9% | 100% | 99.9% | 99.5% | – | – | – | – | – | – | – | – | –
C[N+](C)(C)CCCCCCCCCCCCCCCCCCN(CCCCCCCCCCCCCCCCCC[N+](C)(C)C)CCOc1nc(Cl)nc(Cl)n1 [Example 18] | 99.9% | 99.9% | 96.9% | 100% | 99.9% | 98.9% | 100% | 99.9% | 97.9% | – | – | – | – | – | – | – | – | –
Clc1nc(Cl)nc(OCCC[P+](c2ccccc2)(c2ccccc2)c2ccccc2)n1 [Example 20] | 99.9% | 99.9% | 92.9% | 100% | 99.9% | 97.9% | 100% | 99.9% | 95.9% | – | – | – | – | – | – | – | – | –
Clc1nc(Cl)nc(OCCC[P+](c2ccccc2)(c2ccccc2)c2ccccc2)n1.[Br-] [Example 21] | – | – | – | – | – | – | – | – | – | 99.9% | 99.9% | 93.9% | 99.99% | 99.9% | 98.9% | 99.99% | 99.9% | 96.9%
